Measured values published in patent US10508120B2, “TYK2 inhibitors and uses thereof” (Nimbus Lakshmi, Inc., priority 2017, dated 2019).
Like-named read-outs stand apart in the source and are kept apart here.

Assays:
[1] = target: human TYK2 (JH2domain-pseudokinase) (Homo sapiens (Human), UniProt P29597); test: TYK2 JH2 Domain Binding Assay (KINOMEscan)
Method in brief: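 Competition binding of an NFkB-DBD fusion of human TYK2 JH2 (G556–D888), expressed in HEK293 and used as crude extract at <0.1 nM, against immobilized ligand beads; 1 h at room temperature in PBS/Tween/DTT/BSA buffer, 0.9% DMSO.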

JAK2 kinase domain (JH1) = JAK2 kinase domain (JH1) (Homo sapiens (Human), UniProt O60674); test: JAK2 Radioactive Kinase Assay; format: biochemical; conditions: read-out: JAK2 JH1% Inhibition @ 10 μM
Method in brief: (§1)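 Single-point screen: 10 μM test compound, radioactive kinase read-out, percent inhibition reported for each kinase domain.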

Tyk2 kinase domain (DH1) = Tyk2 kinase domain (DH1) (Homo sapiens (Human), UniProt P29597); test: Tyk2 Radioactive Kinase Assay; format: biochemical; conditions: read-out: Tyk2 JH1% Inhibition @ 10 μM
Method in brief: as §1

Chain of Tyk2 kinase domain (DH1) (P29597 897-1176): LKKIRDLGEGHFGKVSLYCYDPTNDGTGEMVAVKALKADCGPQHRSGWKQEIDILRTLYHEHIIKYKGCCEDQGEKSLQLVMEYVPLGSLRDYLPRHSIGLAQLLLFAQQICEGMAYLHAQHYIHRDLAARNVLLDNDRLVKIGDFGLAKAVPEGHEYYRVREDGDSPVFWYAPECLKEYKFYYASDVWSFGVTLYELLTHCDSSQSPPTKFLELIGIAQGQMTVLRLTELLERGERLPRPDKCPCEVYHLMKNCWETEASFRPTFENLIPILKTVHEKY
Chain of human TYK2 (JH2domain-pseudokinase) (P29597 556-888): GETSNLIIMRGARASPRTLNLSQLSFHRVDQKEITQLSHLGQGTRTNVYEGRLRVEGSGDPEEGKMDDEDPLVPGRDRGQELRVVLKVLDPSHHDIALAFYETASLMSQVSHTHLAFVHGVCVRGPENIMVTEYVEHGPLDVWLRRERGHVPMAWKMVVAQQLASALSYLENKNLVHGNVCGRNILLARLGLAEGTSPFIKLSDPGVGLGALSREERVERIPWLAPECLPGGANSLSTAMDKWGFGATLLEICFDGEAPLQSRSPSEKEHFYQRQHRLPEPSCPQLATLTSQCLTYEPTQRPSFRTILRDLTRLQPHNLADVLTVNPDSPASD
Chain of JAK2 kinase domain (JH1) (O60674 849-1124): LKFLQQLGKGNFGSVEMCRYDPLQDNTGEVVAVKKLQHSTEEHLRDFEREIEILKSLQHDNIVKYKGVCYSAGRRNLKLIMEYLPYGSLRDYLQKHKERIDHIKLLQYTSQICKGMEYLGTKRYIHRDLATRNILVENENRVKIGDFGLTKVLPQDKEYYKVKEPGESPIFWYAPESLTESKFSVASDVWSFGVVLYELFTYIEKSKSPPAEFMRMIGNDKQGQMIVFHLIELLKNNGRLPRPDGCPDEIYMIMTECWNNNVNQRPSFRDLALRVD

Structure (SMILES)	Kd [1]	inhibition at 10 µM (JAK2 kinase domain (JH1); 10 μM compound, 10 μM ATP)	inhibition at 10 µM (Tyk2 kinase domain (DH1); 10 μM compound, 10 μM ATP)	inhibition at 10 µM (JAK2 kinase domain (JH1); compound at 10 μM, ATP 10 μM)	inhibition at 10 µM (Tyk2 kinase domain (DH1); compound at 10 μM, ATP 10 μM)
CNc1cc(Nc2cccn([C@H]3CCCN(CCF)C3)c2=O)nc2c(C(=O)NC3CC3)cnn12 [I-880]	< 0.2 nM	< 50%	< 50%	–	–
CNc1cc(Nc2cccnc2OC2CC2)nc2c(C(=O)N[C@H]3[C@@H]4COC[C@@H]43)cnn12 [I-446]	0.2 to 1 nM	–	–	< 50%	< 50%
CNc1cc(Nc2cccnc2OC2COC2)nc2c(C(=O)NC3CCC3)cnn12 [I-298]	1 to 10 nM	–	–	< 50%	< 50%
CNc1cc(Nc2cccn([C@@H]3CCCN(CCF)C3)c2=O)nc2c(C(=O)N[C@@H]3C[C@@H]3F)cnn12 [I-901]	0.2 to 1 nM	< 50%	< 50%	–	–
CNc1cc(Nc2cccn(C3CCCN(CCC#N)C3)c2=O)nc2c(C(=O)NC3CC3)cnn12 (stereo not drawn) [I-1009, 5-((1-(1-(2-cyanoethyl)piperidin-3-yl)-2-oxo-1,2-dihydropyridin-3-yl)amino)-N-cyclopropyl-7-(methylamino)pyrazolo[1,5-a]pyrimidine-3-carboxamide]	0.2 to 1 nM	< 50%	< 50%	–	–
CNc1cc(Nc2cccnc2O[C@H]2C[C@H](OC)C2)nc2c(C(=O)NC3CC3)cnn12 [I-188]	< 0.2 nM	–	–	< 50%	< 50%
CNc1cc(-c2cn(C(C)C)c3ncccc23)nc2c(C(=O)N[C@@H]3C[C@H]3O)cnn12 (stereo in doubt) [I-653, N-((1R,2R)-2-hydroxycyclopropyl)-5-(1-isopropyl-1H-pyrrolo[2,3-b]pyridin-3-yl)-7-(methylamino)pyrazolo[1,5-a]pyrimidine-3-carboxamide]	< 0.2 nM	–	–	< 50%	< 50%
COc1ncccc1Nc1cc(NC2CC2)n2ncc(C(=O)NC3CC3)c2n1 [I-336, N-cyclopropyl-7-(cyclopropylamino)-5-((2-methoxypyridin-3-yl)amino)pyrazolo[1,5-a]pyrimidine-3-carboxamide]	0.2 to 1 nM	–	–	< 50%	< 50%
CNc1cc(Nc2cccn(C3CCN(C)CC3(F)F)c2=O)nc2c(C(=O)NC3CC3)cnn12 (stereo not drawn) [I-761]	0.2 to 1 nM	–	–	< 50%	< 50%
CNc1cc(Nc2cccn(C3CCN(CCF)CC3)c2=O)nc2c(C(=O)NC3CC3)cnn12 [I-569, N-cyclopropyl-5-((1-(1-(2-fluoroethyl)piperidin-4-yl)-2-oxo-1,2-dihydropyridin-3-yl)amino)-7-(methylamino)pyrazolo[1,5-a]pyrimidine-3-carboxamide]	< 0.2 nM	–	–	< 50%	< 50%
CNc1cc(Nc2cccn([C@H]3CCOC3)c2=O)nc2c(C(=O)NC3CC3)cnn12 [I-203]	< 0.2 nM	–	–	< 50%	< 50%
Cc1c(Nc2cccnc2OC(C)C)nc2c(C(=O)NC3CC3)cnn2c1N [I-207, 7-amino-N-cyclopropyl-5-((2-isopropoxypyridin-3-yl)amino)-6-methylpyrazolo[1,5-a]pyrimidine-3-carboxamide]	1 to 10 nM	–	–	< 50%	< 50%
CNc1cc(Nc2cccn(C3CCCN(CCF)C3)c2=O)nc2c(C(=O)NC3CC3)cnn12 (stereo not drawn) [I-848]	< 0.2 nM	< 50%	< 50%	–	–
CNc1cc(Nc2cccnc2OC)nc2c(C(=O)N[C@@H]3CC[C@]3(C)O)cnn12 [I-1016, N-((1R,2S)-2-hydroxy-2-methylcyclobutyl)-5-((2-methoxypyridin-3-yl)amino)-7-(methylamino)pyrazolo[1,5-a]pyrimidine-3-carboxamide]	1 to 10 nM	< 50%	< 50%	–	–
